Data reported in patent US12077741B2, “Crosslinked hydrogel compositions for regulating states of encapsulated cancer cells” (University Of Delaware, priority 2017, dated 2024).
Like-named read-outs stand apart in the source and are kept apart here. One block for each molecule: values may come before it.

What was measured:
Format in all cases: cell-based
MDA-MB-231 cells [1] = assay: Drug response, cells cultured in hydrogels; design: viability, times higher in cellular dormancy than growth state: dose or concentration left out as unconfirmed; details: for viability at 4000 µM / viability at 7000 µM / viability at 10000 µM / EC50 / IC50 / viability at 50 µM / viability at 550 µM / viability at 10 µM / viability at 1000 µM / viability at 100 µM: Homo sapiens; for viability at 4000 µM: 4 mM; for viability at 4000 µM / viability at 7000 µM / viability at 10000 µM / viability at 50 µM / viability at 550 µM / viability at 10 µM / viability at 1000 µM / viability at 100 µM: read-out: cell viability (normalized to vehicle control); for viability at 7000 µM: 7 mM; for viability at 10000 µM: 10 mM; for viability at 50 µM: 0.05 mM; for viability at 550 µM: 0.55 mM; for viability at 10 µM: 0.01 mM; for viability at 100 µM: 0.10 mM
Procedure: DOX, PAC, and 5-FU stocks were diluted in medium to desired concentrations: DOX (0.001, 0.01, 0.05, 0.1, 0.55, 1, or 2 mM), PAC (0.05, 0.1, 0.55, or 1 mM), and 5-FU (1.0, 4.0, 7.0, or 10 mM).
At the highest concentrations tested, the DMSO concentration ranged between 1-2% (v/v) for all drugs used. […] Thus, all vehicle controls used in this study contained medium with 1% (v/v) DMSO. […] 15 days post encapsulation, cell-laden hydrogels were rinsed with PBS and transferred to a new well plate for drug exposure for 48 hr. The hydrogels were rinsed twice with PBS to remove excess medium, followed by labeling with a Live/Dead® cell viability kit (Invitrogen) in PBS for 30 min, according to the manufacturer's instructions. The hydrogels were rinsed with PBS for 10 min to remove excess stain. Labeled hydrogels were placed on coverslips and imaged using structured Illumination on a Zeiss AxioObserver Z1 inverted fluorescent microscope as previously described. 32-34 Fluorescent z-stacks (z-height: 150 μm) were acquired approximately at the center of the hydrogels, between the bottom and top surfaces of each sample, and analyzed using FIJI software (NIH). Due to the red autofluorescence of DOX, only the live cells were imaged for viability studies. To quantify cell viability, the number of live cells was normalized to the number of live cells measured in the vehicle control. A minimum of 6 hydrogels were analyzed for each condition.
(§1) For statistical comparison between viability values, distribution normality was assessed via quantification of skewness and kurtosis, where values within ±2 indicated a normal distribution. Equal variance among groups was additionally evaluated. A one-way analysis of variance (ANOVA) with a post-hoc Tukey-Kramer test was implemented to determine statistical significance between multiple groups. Unless otherwise Indicated, p<0.05 was considered statistically significant. Origin Lab software was used to fit DOX viability data. A nonlinear, growth/sigmoidal curve fit using a dose response function with a Levenberg Marquardt iteration algorithm was performed and allowed to converge for all conditions with a chi-square tolerance of 1E-9.

MDA-MB-231 cells [2] = assay: Drug response, 2D controls on tissue culture plastic; details: for EC50 / IC50: 2D culture
Procedure: MDA-MB-231 cells were trypsinized, counted, and seeded in a fibronectin coated (10 μg/mL), 96 well plate at a density of 5,000 cells/well in serum-containing medium. To measure the drug response of cells independent of encapsulation, pre-encapsulation conditions were replicated by allowing the cells to adhere overnight followed by culture in serum-free medium for 48 hr. DOX, PAC, and 5-FU were reconstituted in DMSO to a stock concentration of 172.4, 58.5, and 384.6 mM, respectively. Stock solutions were diluted in medium to a range of concentrations: DOX (0.001, 0.01, 0.1, 1, 10, 100, or 1000 μM), PAC (0.001, 0.01, 0.1, 1, 10, or 100 μM), and 5-FU (0.001, 0.01, 0.1, 1, 10, 100, or 1000 μM) and added to the MDA-MB-231 cells for 48 hr (n=6 wells per concentration). 46 At the highest drug concentration tested, the DMSO concentration remained […]; thus, 0.1% (v/v) DMSO was used as a vehicle control in 2D studies. Cells were rinsed in PBS twice to remove excess medium, followed by labeling with a Live/Dead® cell viability kit (Invitrogen). Only live cells were labeled, as dead cells detached from the wells and were washed away. Labeled cells were imaged using the proper filter cubes and analyzed using FIJI software (NIH).
as §1
The response of MDA-MB-231 cells cultured on standard tissue culture plastic (2D) to DOX, PAC, and 5-FU was quantified as control. MDA-MB-231 cells were cultured on 96 well plates and serum-starved for 48 hr, following the same protocol used for encapsulation for ease of comparison. The MDA-MB-231 cells were exposed to drug-containing medium at the following concentrations (DOX: 0.001, 0.01, 0.1, 1, 10, 100, or 1000 μM; PAC: 0.001, 0.01, 0.1, 1, 10, or 100 μM; and 5-FU: 0.001, 0.01, 0.1, 1, 10, 100, or 1000 μM) for 48 hr. The live MDA-MB-231 cells were fluorescently labeled, imaged, and quantified (FIG. 1).

MDA-MB-231 cells [3] = assay: Doxorubicin accumulation and nuclear localization; details: for nuclear to cytoplasmic (N/C) ratio: 48 hr
Procedure: Cells were encapsulated in hydrogel formulations that induced growth, balanced dormancy, or cellular dormancy for 15 days as described above. The medium was replaced with DOX-containing medium at a concentration of 0.05 mM. Four hydrogels for each formulation were imaged at varying time points (1, 2, 3, 5, 12, 20, 24, 48 hr). The mean cellular fluorescence intensity was measured and plotted against time to quantify intracellular DOX accumulation. To calculate the nuclear to cytoplasmic ratio, the fluorescence intensity measurements of the cytoplasmic and nuclear regions were acquired for each cell, with at least 70 cells measured per image. Due to its mechanism of action, DOX is known to primarily localize to the nucleus of DOX-sensitive cell lines. Studies quantifying DOX localization in multiple cell lines show alignment between high fluorescence intensity and the nucleus. Additionally, nuclear location was approximated based on areas of high fluorescence intensity with distinct morphological features (size, location).

[4] = MDA-MB-231, 48 h, balanced dormancy, 48 hr
[5] = MDA-MB-231, 48 h, cellular dormancy, 48 hr
[6] = MDA-MB-231, 48 h, growth state, 48 hr
[7] = MDA-MB-231, 48 h, balanced dormancy hydrogel, 48 hr
[8] = MDA-MB-231, 48 h, cellular dormancy hydrogel, 48 hr
[9] = MDA-MB-231, 48 h, growth state hydrogel, 48 hr
[10] = MDA-MB-231, range over the three hydrogel formulations
[11] = Homo sapiens, MDA-MB-231, 48 hr
[12] = Homo sapiens, MDA-MB-231, 2D, 48 hr, read-out: cell viability

EC50 (MDA-MB-231 cells [2]; Homo sapiens, MDA-MB-231, 48 h): 1.81 µM
SMILES: O=c1[nH]cc(F)c(=O)[nH]1 [5-FU, 5-fluorouracil]
viability at 4000 µM (MDA-MB-231 cells [1]; [4]): 92 ± 4% | viability at 7000 µM (MDA-MB-231 cells [1]; MDA-MB-231, 48 h, both dormant states, 48 hr): > 90% | viability at 4000 µM (MDA-MB-231 cells [1]; [5]): 100 ± 6% | viability at 10000 µM (MDA-MB-231 cells [1]; [5]): 99 ± 4% | viability at 10000 µM (MDA-MB-231 cells [1]; MDA-MB-231, 48 h, either dormant state, 48 hr): > 93% | viability at 7000 µM (MDA-MB-231 cells [1]; [6]): 80 ± 2% | viability at 10000 µM (MDA-MB-231 cells [1]; [6]): 75 ± 5% | cell viability (normalized to vehicle control) (MDA-MB-231 cells [1]; dormant cells, all concentrations tested): > 90% | viability at 1000 µM (MDA-MB-231 cells [2]; Homo sapiens, MDA-MB-231, 2D, 1 mM, 48 hr, read-out: cell viability): 65 ± 3%

SMILES: C[S+](C)[O-] [DMSO, Dimethyl Sulfoxide]
cell viability vs serum-containing medium (MDA-MB-231 cells [1]; 1 or 2% (v/v), growth hydrogel formulation, 48 hr): no significant differences | cytotoxicity (MDA-MB-231 cells [1]; 18%, 26% (v/v)): cytotoxic

fold increase in IC50, balanced dormancy vs growth state (MDA-MB-231 cells [1]): 1.3 fold | fold increase in IC50, cellular dormancy vs growth state (MDA-MB-231 cells [1]): 1.8 fold | EC50 (MDA-MB-231 cells [1]; [7]): 67.6 µM | IC50 (MDA-MB-231 cells [1]; [7]): 58.3 µM | EC50 (MDA-MB-231 cells [1]; [8]): 83.3 µM | IC50 (MDA-MB-231 cells [1]; [8]): 79.9 µM | EC50 (MDA-MB-231 cells [1]; [9]): 43.6 µM | IC50 (MDA-MB-231 cells [1]; [9]): 43.6 µM | EC50 (MDA-MB-231 cells [1]; [10]): 47.4 to 83.3 µM | IC50 (MDA-MB-231 cells [1]; [10]): 43.6 to 79.9 µM | EC50 (MDA-MB-231 cells [2]; Homo sapiens, MDA-MB-231, 48 h): 0.006 µM | IC50 (MDA-MB-231 cells [2]; [11]): 0.007 µM
SMILES: COc1cccc2c1C(=O)c1c(O)c3c(c(O)c1C2=O)C[C@@](O)(C(=O)CO)C[C@@H]3O[C@H]1C[C@H](N)[C@H](O)[C@H](C)O1 [DOX, doxorubicin]
fold decrease in nuclear localization, dormant vs growth state (MDA-MB-231 cells [3]): 1.5 fold | intracellular accumulation (mean fluorescence intensity) between the three phenotypic states (MDA-MB-231 cells [3]; 0.05 mM, over 48 hr): no statistically significant differences | nuclear to cytoplasmic (N/C) ratio (MDA-MB-231 cells [3]; balanced dormancy, 0.05 mM): 2.3±0.8 | nuclear to cytoplasmic (N/C) ratio (MDA-MB-231 cells [3]; cellular dormancy, 0.05 mM): 2.4±1.0 | nuclear to cytoplasmic (N/C) ratio (MDA-MB-231 cells [3]; growth state, 0.05 mM): 3.5±2.3 | viability, times higher in cellular dormancy than growth state (MDA-MB-231 cells [1]; 0.55): 4-6 times | viability at 50 µM (MDA-MB-231 cells [1]; [4]): 57 ± 2% | viability at 550 µM (MDA-MB-231 cells [1]; [4]): 16 ± 1% | viability at 10 µM (MDA-MB-231 cells [1]; [5]): 91 ± 12% | viability at 50 µM (MDA-MB-231 cells [1]; [5]): 62 ± 5% | viability at 550 µM (MDA-MB-231 cells [1]; [5]): 24 ± 3% | viability at 10 µM (MDA-MB-231 cells [1]; [6]): 82 ± 1% | viability at 50 µM (MDA-MB-231 cells [1]; [6]): 44 ± 3% | viability at 550 µM (MDA-MB-231 cells [1]; [6]): 5 ± 1% | viability at 100 µM (MDA-MB-231 cells [2]; [12]): 1%

EC50 (MDA-MB-231 cells [2]; 48 hr): 0.761 µM | EC50 (MDA-MB-231 cells [2]; Homo sapiens, MDA-MB-231, 48 h): 0.716 µM | IC50 (MDA-MB-231 cells [2]; [11]): 0.651 µM
SMILES: CC(=O)O[C@H]1C(=O)[C@@]2(C)[C@H]([C@H](OC(=O)c3ccccc3)[C@]3(O)C[C@H](OC(=O)[C@H](O)[C@@H](NC(=O)c4ccccc4)c4ccccc4)C(C)=C1C3(C)C)[C@]1(OC(C)=O)CO[C@@H]1C[C@@H]2O [PAC, paclitaxel]
viability at 550 µM (MDA-MB-231 cells [1]; [4]): 86 ± 5% | viability at 1000 µM (MDA-MB-231 cells [1]; MDA-MB-231, 48 h, balanced dormancy, 1.00 mM, 48 hr): 72 ± 3% | viability at 100 µM (MDA-MB-231 cells [1]; [5]): 91 ± 6% | viability at 550 µM (MDA-MB-231 cells [1]; [5]): 84 ± 5% | viability at 1000 µM (MDA-MB-231 cells [1]; MDA-MB-231, 48 h, cellular dormancy, 1 mM, 48 hr): 75 ± 3% | viability at 1000 µM (MDA-MB-231 cells [1]; MDA-MB-231, 48 h, dormant cells (either state), 1 mM, 48 hr): > 72% | viability at 100 µM (MDA-MB-231 cells [1]; [6]): 55 ± 4% | viability at 550 µM (MDA-MB-231 cells [1]; [6]): 51 ± 4% | viability at 1000 µM (MDA-MB-231 cells [1]; MDA-MB-231, 48 h, growth state, 1 mM, 48 hr): 39 ± 4% | viability at 0.01 µM (MDA-MB-231 cells [2]; Homo sapiens, MDA-MB-231, 2D, 0.01 μM, 48 hr, read-out: cell viability): 94 ± 13% | viability at 100 µM (MDA-MB-231 cells [2]; [12]): 6 ± 2%
